Source: publication PMC8624998, “Synthesis and Antiproliferative Evaluation of 3-Chloroazetidin-2-ones with Antimitotic Activity: Heterocyclic Bridged Analogues of Combretastatin A-4” (Pharmaceuticals, 2021)
Read-outs that look alike come from different tables or passages of the source.

Tests used:
[1] = test system: ACHN; assay: NCI-60 5 dose screen, Renal Cancer; assay type: cell-based; conditions: Homo sapiens
[2] = test system: CAKI-1; assay: NCI-60 5 dose screen, Renal Cancer; assay type: cell-based; conditions: Homo sapiens
[3] = test system: SK-MEL-28; assay: NCI-60 5 dose screen, Melanoma; assay type: cell-based; conditions: Homo sapiens
[4] = test system: NCI-H332M; assay: NCI-60 5 dose screen, NSC Lung Cancer; assay type: cell-based; conditions: Homo sapiens
[5] = test system: MCF-7 cells; assay: Annexin V/PI apoptotic assay; conditions: for total apoptotic cells (Annexin V-stained positive cells): 48 h
Protocol: The Annexin V/Propidium Iodide (PI) assay was used to detect both early- and late-stage apoptosis using flow cytometry, as previously reported [34]. Early apoptosis is detected by the presence of phosphatidylserine (PS) on the outer surface of the cell membrane. […] Cells were then analysed using flow cytometry. […] Cells were washed in binding buffer and then re-suspended in PI-containing binding buffer (1:1000). Samples were analysed without delay using the BD Accuri flow cytometer and the data analysed with GraphPad Prism software.
MCF-7 breast cancer cells were treated with 10n (50 and 500 nM) or CA-4 (50 nM) or control vehicle (0.1% ethanol (v/v)). The percentage of apoptotic cells was determined by staining with Annexin V-FITC and propidium iodide (PI). […] Values represent the mean of three independent experiments.

[6] = test system: colchicine binding site of β-tubulin; assay: Colchicine binding-site (EBI) assay; assay type: cell-based, human; conditions: MCF-7, 10 μM for 2 h, then EBI 100 μM
Protocol: A colchicine-site binding assay was performed to evaluate the interaction of compound 10n at the colchicine binding site of tubulin using N,N-ethylenebis(iodoacetamide) (EBI). EBI crosslinks the Cys-239 and Cys-354 residues of the colchicine binding site of β-tubulin, alkylating the sulfhydryl group of cysteine. […] Microtubule targeting compounds binding at the colchicine site, e.g., colchicine and CA-4, prevent the formation of the β-tubulin-EBI adduct. […] Control samples (ethanol 0.1% (v/v)) indicated the formation of the β-tubulin-EBI adduct at a slightly lower position (Figure 9). […] These tubulin polymerisation inhibitors act on the colchicine site of tubulin and compete with EBI to bind the colchicine binding site and hinder the cross-linking of EBI with β-tubulin.
The assay was performed as we have previously reported. N,N′-Ethylene-bis(iodoacetamide) (EBI) (Santa Cruz Biotechnology) was dissolved in ethanol (100 μM). MCF-7 cells were seeded at a density of 5 × 10^4 cells/well in 6-well plates and incubated overnight. […]
Figure 9 Effects of compound 10n on the inhibition of the bisthioalkylation of Cys239 and Cys354 of β-tubulin by N,N′-ethylene-bis(iodoacetamide) (EBI) in MCF-7 cells. […] Cells were harvested, lysed and analysed using […] and Western blotting for β-tubulin and β-tubulin-EBI adducts. […]

[7] = test system: microtubule network of MCF-7 cells; assay: Immunofluorescence (confocal) of microtubule network; assay type: cell-based, human; conditions: MCF-7, 16 h; 10n 0.05, 0.1, 0.5 μM; CA-4 10 nM; paclitaxel 1 μM
Protocol: Subsequently, the effect of the representative compound 10n on the organisation of microtubule cytoskeleton of MCF-7 cells was also determined by confocal microscopy using an anti-tubulin antibody (Figure 8). […] The MCF-7 cell nuclei (stained blue) were also clearly observed (Figure 8A). […] The treatment of MCF-7 breast cancer cells with CA-4 tubulin-targeting agents has been reported to result in the formation of multiple micronuclei and mitotic catastrophes.
Confocal microscopy was used to study the effects on MCF-7 cytoskeleton following treatment with compound 10n following the protocols previously reported. For each experiment, all images were collected on the same day using identical parameters. MCF-7 cells were seeded (1 × 10^5 cells/mL) on eight chamber glass slides. Cells were either untreated or treated with vehicle (1% ethanol (v/v)), CA-4 (10 nM), Paclitaxel (1 μM) and β-lactam compound 10n at 50 nM, 100 nM and 500 nM concentrations for 16 h. The cells were then gently washed in PBS and then fixed for 30 min with 100% ice-cold MeOH. Cells were washed three times in PBS for 10 min and then permeabilised in 0.5% Triton X-100. The cells were subsequently washed in PBS containing 0.1% Tween (PBST), and then blocked in bovine serum albumin (5%) diluted in PBST. Cells were then incubated with a mouse monoclonal anti-α-tubulin−FITC antibody (clone DM1A) (1:200) for 2 h at 20 °C. Following washes in PBST, cells were incubated with Alexa Fluor 488 dye (1:500) for 1 h at 20 °C. Following further washes in PBST, the cells were mounted in Ultra Cruz Mounting Media, which contained 4,6-diamino-2-phenolindol dihydrochloride (DAPI). The images were photographed using Leica SP8 confocal microscopy with the Leica application suite X software program. Experiments were performed on three independent occasions.
Figure 8 Compound 10n depolymerises the microtubule network of MCF-7 breast cancer cells. Cells were treated with (A) vehicle control ([…]), (B) CA-4 (10 nM), (C) paclitaxel (1 μM) and compound 10n, (D) (50 nM), (E) (100 nM) and (F) (500 nM) for 16 h. […]

[8] = Homo sapiens, MCF7, 48 h, read-out: Viable

| SMILES | GI50 ([3]; read-out: GI50) | GI50 [4] | total apoptotic cells (Annexin V-stained positive cells) ([5]; 50 nM) | viability at 0.05 µM [5, 8] | β-tubulin-EBI adduct formation [6] | effect on microtubule network [7] | also measured |
| --- | --- | --- | --- | --- | --- | --- | --- |
| COc1ccc([C@H]2[C@H](Cl)C(=O)N2c2cc(OC)c(OC)c(OC)c2)cc1 (relative stereo) [Compound 10e trans, Trans-3-chloro-1-(3,4,5-trimethoxyphenyl)-4-(4-methoxyphenyl) azetidin-2-one] | 69.6 nM | 0.962 µM | – | – | – | – | GI50 ([1]; read-out: GI50): 97.1 nM; GI50 ([2]; read-out: GI50): 122 nM |
| COc1ccc(/C=C\c2cc(OC)c(OC)c(OC)c2)cc1O [CA-4, Combretastatin A-4] | – | – | 34.6% | 61.8% | Tubulin EBI adduct formation was inhibited | extensive depolymerisation of tubulin | – |
| COc1ccc(C2C(Cl)C(=O)N2c2cc(OC)c(OC)c(OC)c2)cc1O (stereo not shown) [Compound 10n, 3-Chloro-4-(3-hydroxy-4-methoxy-phenyl)-1-(3,4,5-trimethoxyphenyl)azetidin-2-one] | – | – | 29.8% | 66.9% | Tubulin EBI adduct formation was inhibited | disorganised microtubule network | total apoptotic cells (Annexin V-stained positive cells) ([5]; 500 nM): 37%; viability at 0.5 µM [5, 8]: 58.5% |
| COc1ccc(C2N(c3cc(OC)c(OC)c(OC)c3)C(=O)C2(Cl)Cl)cc1O (stereo not shown) [Compound 11n, 3,3-Dichloro-4-(3-hydroxy-4-methoxyphenyl)-1-(3,4,5-trimethoxyphenyl)azetidin-2-one] | – | – | – | – | – | – | GI50 [1]: 51.1 nM; GI50 [2]: 126 nM; GI50 [3]: 62.9 nM |
| CCSc1ccc(C2C(Br)C(=O)N2c2cc(OC)c(OC)c(OC)c2)cc1 (stereo not shown) [Compound 16d, 3-Bromo-4-(4-(ethylthio)phenyl)-1-(3,4,5-trimethoxyphenyl)azetidin-2-one] | 1940 nM | 7.37 µM | – | – | – | – | – |
